In ChEMBL document CHEMBL3098061, “Design and synthesis of an aminopiperidine series of γ-secretase modulators” (Bioorg Med Chem Lett, 2014):
Values after ≈ are worked out from the molar mass of the structure shown.

Tests used:
[1] = species on record: Rattus norvegicus; experiment: Modulation of gamma-secretase in rat fetus primary neurons assessed as inhibition of amyloid beta42 production at 2.5 uM after 1 to 3 days by ELISA
[2] = Modulation of gamma-secretase in rat fetus primary neurons assessed as inhibition of amyloid beta42 production after 1 to 3 days by ELISA
[3] = Permeability of the compound at pH 7.4 by PAMPA; type: ADME; settings: read-out: permeability
[4] = test system: Mus musculus; experiment: Reduction in amyloid beta42 production in wild type mouse plasma at 100 mg/kg, po; type: functional; parameters: scale not given: the % may be the effect or the level left
[5] = test system: Mus musculus; experiment: Reduction in amyloid beta42 production in wild type mouse hippocampus at 100 mg/kg, po; type: functional; parameters: scale not given: the % may be the effect or the level left
[6] = Aqueous solubility of the compound at pH 7.4; type: physicochemical

| Compound | inhibition [1] [%] | also measured |
| --- | --- | --- |
| COc1cc(C(=O)N[C@@H]2CCCN(Cc3ccc(C)cc3)C2)ccc1-n1cnc(C)c1 | 36 |  |
| COc1cc(C(=O)NC2CCCN(C(=O)NCc3ccc(C)cc3)C2)ccc1-n1cnc(C)c1 (racemic) | 28 |  |
| COc1cc(C(=O)N[C@H]2CCCN(Cc3ccc(C(F)(F)F)cc3)C2)ccc1-n1cnc(C)c1 | 92 |  |
| COc1cc(C(=O)N[C@@H]2CCCN(Cc3ccc(Br)cc3)C2)ccc1-n1cnc(C)c1 | 55 |  |
| COc1cc(C(=O)NC2CCCN(Cc3ccc(C)cc3)C2)ccc1-n1cnc(C)c1 (racemic) | 82 |  |
| COc1cc(C(=O)NC2CCCN(Cc3cccc(C)c3)C2)ccc1-n1cnc(C)c1 (racemic) | 54 |  |
| COc1ccc(CN2CCCC(NC(=O)c3ccc(-n4cnc(C)c4)c(OC)c3)C2)cc1 (racemic) | 45 |  |
| COc1cc(C(=O)NC2CCCN(Cc3ccc(Br)cc3)C2)ccc1-n1cnc(C)c1 (racemic) | 93 |  |
| COc1cc(C(=O)N[C@@H]2CCCN(Cc3ccc(C(F)(F)F)cc3)C2)ccc1-n1cnc(C)c1 | 57 |  |
| COc1cc(C(=O)N[C@H]2CCCN(Cc3ccc(Br)cc3)C2)ccc1-n1cnc(C)c1 | 97 | IC50 [2]: 250 nM; Papp [3]: 50 ×10⁻⁶ cm/s; Activity [4]: 66%; Activity [5]: 55%; solubility [6]: 8 µg/mL (≈ 16.5 µM) |
| COc1cc(C(=O)NC2CCCN(C(=O)NCc3ccccc3)C2)ccc1-n1cnc(C)c1 (racemic) | 25 |  |
| COc1cc(C(=O)NC2CCCN(Cc3ccc(C(F)(F)F)cc3)C2)ccc1-n1cnc(C)c1 (racemic) | 90 |  |
| COc1cc(C(=O)NC2CCCN(Cc3ccccc3C)C2)ccc1-n1cnc(C)c1 (racemic) | 62 |  |
| COc1cc(C(=O)N[C@H]2CCCN(C(=O)c3ccc(Br)cc3)C2)ccc1-n1cnc(C)c1 | 64 |  |
| COc1cc(C(=O)N[C@H]2CCCN(C(=O)c3ccc(C)cc3)C2)ccc1-n1cnc(C)c1 | 55 |  |
| COc1cc(C(=O)NC2CCCN(Cc3ccccc3)C2)ccc1-n1cnc(C)c1 (racemic) | 37 |  |
| COc1cc(C(=O)N[C@H]2CCCN(C(=O)c3ccc(C(F)(F)F)cc3)C2)ccc1-n1cnc(C)c1 | 34 |  |
| COc1cc(C(=O)N[C@H]2CCCN(Cc3ccc(C)cc3)C2)ccc1-n1cnc(C)c1 | 90 |  |
| COc1cc(C(=O)NC2CCCN(C(=O)NCc3ccc(Br)cc3)C2)ccc1-n1cnc(C)c1 (racemic) | 47 |  |

The next lines start with results.

| inhibition [1] [%] | Compound | also measured |
| --- | --- | --- |
| < 1 | COc1cc(C(=O)N(C(C)C)C2CCCN(Cc3cccc(C(F)(F)F)c3)C2)ccc1-n1cnc(C)c1 (configuration not stated) |  |
| < 1 | COc1cc(C(=O)N(C)C2CCCN(Cc3cccc(C(F)(F)F)c3)C2)ccc1-n1cnc(C)c1 (configuration not stated) |  |
| 18 | COc1cc(C(=O)N2CCN(Cc3cccc(C(F)(F)F)c3)CC2)ccc1-n1cnc(C)c1 |  |
| 78 | COc1cc(C(=O)NC2CCN(Cc3cccc(C(F)(F)F)c3)CC2)ccc1-n1cnc(C)c1 |  |
| 40 | COc1cc(C(=O)NC2CC3CCC(C2)N3Cc2cccc(C(F)(F)F)c2)ccc1-n1cnc(C)c1 (configuration not stated) |  |
| < 1 | CCN(C(=O)c1ccc(-n2cnc(C)c2)c(OC)c1)C1CCCN(Cc2cccc(C(F)(F)F)c2)C1 (configuration not stated) |  |
| 19 | COc1cc(C(=O)N2C3CCC2CN(Cc2cccc(C(F)(F)F)c2)C3)ccc1-n1cnc(C)c1 |  |
| 39 | COc1cc(C(=O)N2CCC(NCc3cccc(C(F)(F)F)c3)C2)ccc1-n1cnc(C)c1 (configuration not stated) |  |
| 51 | COc1cc(C(=O)N2CC3CC2CN3Cc2cccc(C(F)(F)F)c2)ccc1-n1cnc(C)c1 (configuration not stated) |  |
| 17 | COc1cc(C(=O)N2CCCC(NCc3cccc(C(F)(F)F)c3)C2)ccc1-n1cnc(C)c1 (configuration not stated) |  |
| 82 | COc1cc(C(=O)N[C@H]2CCCN(Cc3cccc(C(F)(F)F)c3)C2)ccc1-n1cnc(C)c1 |  |
| 72 | COc1cc(C(=O)N[C@@H]2CCCN(Cc3cccc(C(F)(F)F)c3)C2)ccc1-n1cnc(C)c1 |  |
| 31 | COc1cc(C(=O)NC2CCN(Cc3cccc(C(F)(F)F)c3)C2)ccc1-n1cnc(C)c1 (configuration not stated) |  |
